Measured values from ChEMBL document CHEMBL5729245, “Dioxinoquinoline compounds, preparation method and uses thereof” (2022).

Assays:
[1] = target: Hepatocyte growth factor receptor (Homo sapiens, UniProt P08581); experiment: Assay of Small Molecular Compounds for Inhibiting the Activity of c-MET Kinase: The assay is based on the LANCE TR-FRET technology of Perkin Elmer Inc., and the assay method is as follows:1. Dilution of compounds: a total of 11 concentrations were obtained using a 3-fold gradient dilution from the highest concentration of 2500 nM (the maximum final concentration of the drug used in this assay was 2500 nM, and the minimum final concentration was 0.042 nM).2. 2.5 μL of the gradient-diluted compounds were taken with a transfer pipette to a 384-well plate.3. Addition of enzyme: 5 μL of 2× c-MET kinase solution (concentration was 2 nM) was taken with a transfer pipette to the corresponding reaction well of the 384-well plate, mixed well and pre-reacted at room temperature for 5 minutes.4. 2.5 μL 4× Ultra ULight™-JAK-1 (Tyr1023) Peptide (concentration was 400 nM)/ATP (concentration was 40 μM) mixture was taken with a transfer pipette to the corresponding reaction well of the 384-well plate.5. Negative control: 2.5 μL/well 4× substrate/ATP mixture and 7.5 μL 1× Kinase Assay Buffer were added to the wells of the 384-well plate.6. Positive control: 2.5 μL/well 4× substrate/ATP mixture, 2.5 μL/well 1× Kinase Assay Buffer containing 16% DMSO, and 5 µL/well 2× c-MET kinase solution were added to the 384-well plate. The final concentration of DMSO in the reaction system was 4%.7. The mixture was mixed well and then centrifuged and reacted at room temperature in dark for 60 min.8. Termination of the enzymatic reaction: 5 μL of 4× stop solution was taken with a transfer pipette to the wells of the 384-well plate, mixed and then centrifuged, and reacted at room temperature for 5 min.9. Development of the reaction: 5 μL of 4× detection solution was taken with a transfer pipette to the wells of the 384-well plate for color development, and the mixture was mixed and then centrifuged and reacted at room temperature for 60 min.10. The 384-well plate was placed into the Envision plate reader and the signal was detected using the appropriate program.11. Analysis and processing of the raw data:12. The drug concentrations and the corresponding inhibition rates were input into GraphPad Prism5 for calculation, and the inhibition rate of the compounds were calculated as follows: inhibition rate (%)=(reading of positive well−reading of experimental well)/(reading of positive control well−reading of negative control well)×100%. Processing with GraphPad Prism5 software yielded the corresponding IC50 values (the concentration of the compound at which 50% of the highest inhibition of the enzyme is achieved).
Chain of Hepatocyte growth factor receptor (P08581 whole entry): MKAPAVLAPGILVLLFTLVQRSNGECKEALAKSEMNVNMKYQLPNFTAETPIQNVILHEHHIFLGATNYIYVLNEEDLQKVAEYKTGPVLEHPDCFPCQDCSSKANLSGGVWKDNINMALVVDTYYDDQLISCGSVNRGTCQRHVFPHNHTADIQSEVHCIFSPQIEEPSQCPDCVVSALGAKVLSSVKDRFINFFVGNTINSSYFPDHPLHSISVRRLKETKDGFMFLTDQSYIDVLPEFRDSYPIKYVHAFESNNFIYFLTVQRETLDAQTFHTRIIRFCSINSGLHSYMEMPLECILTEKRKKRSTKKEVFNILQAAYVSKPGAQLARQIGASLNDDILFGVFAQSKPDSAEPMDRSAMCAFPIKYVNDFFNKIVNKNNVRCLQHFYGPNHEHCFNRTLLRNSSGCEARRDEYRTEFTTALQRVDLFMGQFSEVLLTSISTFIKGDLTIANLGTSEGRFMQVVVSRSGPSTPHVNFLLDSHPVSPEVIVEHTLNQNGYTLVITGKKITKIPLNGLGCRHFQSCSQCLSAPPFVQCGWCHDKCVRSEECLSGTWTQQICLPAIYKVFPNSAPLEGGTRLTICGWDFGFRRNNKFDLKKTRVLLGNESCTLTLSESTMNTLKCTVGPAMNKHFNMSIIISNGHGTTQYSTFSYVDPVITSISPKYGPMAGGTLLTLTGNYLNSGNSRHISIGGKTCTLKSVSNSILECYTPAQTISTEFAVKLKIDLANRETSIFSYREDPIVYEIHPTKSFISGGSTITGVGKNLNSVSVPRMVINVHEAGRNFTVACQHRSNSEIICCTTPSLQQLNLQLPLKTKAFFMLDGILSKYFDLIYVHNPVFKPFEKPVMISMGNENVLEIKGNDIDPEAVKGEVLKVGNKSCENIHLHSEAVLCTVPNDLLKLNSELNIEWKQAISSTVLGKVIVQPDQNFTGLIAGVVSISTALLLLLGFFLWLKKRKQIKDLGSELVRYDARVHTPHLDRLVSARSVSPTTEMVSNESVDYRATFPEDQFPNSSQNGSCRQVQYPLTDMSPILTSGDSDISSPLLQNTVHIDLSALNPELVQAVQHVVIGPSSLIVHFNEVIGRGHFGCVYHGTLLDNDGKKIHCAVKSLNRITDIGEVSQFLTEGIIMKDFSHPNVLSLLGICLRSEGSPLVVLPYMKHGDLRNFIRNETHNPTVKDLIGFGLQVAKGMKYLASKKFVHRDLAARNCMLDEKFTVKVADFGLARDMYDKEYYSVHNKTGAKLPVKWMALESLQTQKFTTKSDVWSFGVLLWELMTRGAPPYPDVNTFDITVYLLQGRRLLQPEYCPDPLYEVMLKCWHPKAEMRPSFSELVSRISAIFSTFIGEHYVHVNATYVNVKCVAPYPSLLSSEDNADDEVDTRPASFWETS

[2] = target: Vascular endothelial growth factor receptor 2 (Homo sapiens, UniProt P35968); experiment: Assay of Small Molecular Compounds for Inhibiting the Activity of VEGFR-2 Kinase: The assay is based on the LANCE TR-FRET technology of Perkin Elmer Inc., and the assay method is as follows:1. Dilution of compounds: a total of 11 concentrations were obtained using a 3-fold gradient dilution from the highest concentration of 2500 nM (the maximum final concentration of the drug used in this assay was 2500 nM, and the minimum final concentration was 0.042 nM).2. 2.5 μL of the gradient-diluted compounds were taken with a transfer pipette to a 384-well plate.3. Addition of enzyme: 5 μL of 2× VEGFR-2 kinase solution (concentration was 0.5 nM) was taken with a transfer pipette to the corresponding reaction well of the 384-well plate, mixed well and pre-reacted at room temperature for 30 minutes.4. 2.5 μL 4× Ultra ULight™-JAK-1 (Tyr1023) Peptide (concentration was 200 nM)/ATP (concentration was 40 μM) mixture was taken with a transfer pipette to the corresponding reaction well of the 384-well plate.5. Negative control: 2.5 μL/well 4× substrate/ATP mixture and 7.5 μL 1× Kinase Assay Buffer were added to the wells of the 384-well plate.6. Positive control: 2.5 μL/well 4× substrate/ATP mixture, 2.5 μL/well 1× Kinase Assay Buffer containing 16% DMSO, and 5 μL/well 2× VEGFR-2 kinase solution were added to the 384-well plate. The final concentration of DMSO in the reaction system was 4%.7. The mixture was mixed well and then centrifuged and reacted at room temperature in dark for 60 min.8. Termination of the enzymatic reaction: 5 μL of 4× stop solution was taken with a transfer pipette to the wells of the 384-well plate, mixed and then centrifuged, and reacted at room temperature for 5 min.9. Development of the reaction: 5 μL of 4× detection solution was taken with a transfer pipette to the wells of the 384-well plate for color development, and the mixture was mixed and then centrifuged and reacted at room temperature for 60 min.10. The 384-well plate was placed into the Envision plate reader and the signal was detected using the appropriate program.11. Analysis and processing of the raw data:The drug concentrations and the corresponding inhibition rates were input into GraphPad Prism5 for calculation, and the inhibition rate of the compounds were calculated as follows: inhibition rate (%)=(reading of positive well−reading of experimental well)/(reading of positive control well−reading of negative control well)×100%. Processing with GraphPad Prism5 software yielded the corresponding IC50 values (the concentration of the compound at which 50% of the highest inhibition of the enzyme is achieved).
Chain of Vascular endothelial growth factor receptor 2 (P35968 whole entry): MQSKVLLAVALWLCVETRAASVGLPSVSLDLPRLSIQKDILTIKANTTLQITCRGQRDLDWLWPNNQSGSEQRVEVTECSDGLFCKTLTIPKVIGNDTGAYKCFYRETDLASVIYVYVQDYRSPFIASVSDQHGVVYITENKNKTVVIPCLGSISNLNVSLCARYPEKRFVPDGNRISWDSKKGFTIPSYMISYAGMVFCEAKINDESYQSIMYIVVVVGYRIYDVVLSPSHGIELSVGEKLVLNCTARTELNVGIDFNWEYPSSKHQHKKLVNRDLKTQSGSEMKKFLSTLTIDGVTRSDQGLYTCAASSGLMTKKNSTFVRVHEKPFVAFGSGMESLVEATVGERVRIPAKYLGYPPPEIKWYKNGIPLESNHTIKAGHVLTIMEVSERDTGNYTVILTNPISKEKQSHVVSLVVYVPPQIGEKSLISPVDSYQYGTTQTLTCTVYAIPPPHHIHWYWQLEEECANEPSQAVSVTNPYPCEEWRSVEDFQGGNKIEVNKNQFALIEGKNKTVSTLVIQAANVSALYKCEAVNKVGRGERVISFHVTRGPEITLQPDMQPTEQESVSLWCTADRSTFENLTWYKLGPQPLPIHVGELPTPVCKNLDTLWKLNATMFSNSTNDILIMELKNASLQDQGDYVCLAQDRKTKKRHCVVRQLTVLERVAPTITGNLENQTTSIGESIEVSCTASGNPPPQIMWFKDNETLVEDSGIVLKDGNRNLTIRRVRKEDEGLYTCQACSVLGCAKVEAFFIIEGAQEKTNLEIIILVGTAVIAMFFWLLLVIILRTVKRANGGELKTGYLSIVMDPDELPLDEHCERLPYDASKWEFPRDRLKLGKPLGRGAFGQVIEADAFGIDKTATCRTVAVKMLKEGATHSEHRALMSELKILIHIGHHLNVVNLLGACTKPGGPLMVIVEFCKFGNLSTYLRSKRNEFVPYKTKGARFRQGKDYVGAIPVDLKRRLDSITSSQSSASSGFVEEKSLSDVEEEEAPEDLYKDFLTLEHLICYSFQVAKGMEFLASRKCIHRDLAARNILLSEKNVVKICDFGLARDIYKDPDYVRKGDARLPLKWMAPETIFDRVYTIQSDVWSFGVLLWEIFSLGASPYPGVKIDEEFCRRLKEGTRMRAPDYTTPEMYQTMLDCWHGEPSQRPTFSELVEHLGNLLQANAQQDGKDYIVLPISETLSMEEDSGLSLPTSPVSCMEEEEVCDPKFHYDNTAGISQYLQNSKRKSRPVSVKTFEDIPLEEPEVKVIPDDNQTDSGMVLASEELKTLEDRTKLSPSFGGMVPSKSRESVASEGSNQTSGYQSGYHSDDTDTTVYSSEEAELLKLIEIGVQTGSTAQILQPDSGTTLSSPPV

SMILES | IC50 [1] [nM] | IC50 [2] [nM]
O=C(Nc1ccc(F)cc1)C1(C(=O)Nc2ccc(Oc3ccnc4cc(OC5COC5)c5c(c34)OCCO5)c(F)c2)CC1 | < 50 | < 50
COc1cc2nccc(Oc3ccc(NC(=O)C4(C(=O)Nc5ccc(F)cc5)CC4)cc3)c2c2c1OCCO2 | < 50 | < 50
CN(C)CCCOc1cc2nccc(Oc3ccc(NC(=O)C4(C(=O)Nc5ccc(F)cc5)CC4)cc3F)c2c2c1OCCO2 | < 50 | < 50
O=C(Nc1ccc(F)cc1)C1(C(=O)Nc2ccc(Oc3ccnc4cc(OC5CCOCC5)c5c(c34)OCCO5)c(F)c2)CC1 | < 50 | –
O=C(Nc1ccc(F)cc1)C1(C(=O)Nc2ccc(Oc3ccnc4cc(OCCCN5CCCC5)c5c(c34)OCCO5)c(F)c2)CC1 | < 50 | < 50
COCCCOc1cc2nccc(Oc3ccc(NC(=O)C4(C(=O)Nc5ccc(F)cc5)CC4)cc3F)c2c2c1OCCO2 | < 50 | < 50
COCCN(C)CCCOc1cc2nccc(Oc3ccc(NC(=O)C4(C(=O)Nc5ccc(F)cc5)CC4)cc3F)c2c2c1OCCO2 | < 50 | < 50
O=C(Nc1ccc(F)cc1)C1(C(=O)Nc2ccc(Oc3ccnc4cc(OCCCN5CCOCC5)c5c(c34)OCCO5)cc2F)CC1 | < 50 | < 50
CC1(O)CCN(CCCOc2cc3nccc(Oc4ccc(NC(=O)C5(C(=O)Nc6ccc(F)cc6)CC5)cc4F)c3c3c2OCCO3)CC1 | < 50 | < 50
O=C(Nc1ccc(F)cc1)C1(C(=O)Nc2ccc(Oc3ccnc4cc(OCCCN5CCOCC5)c5c(c34)OCCO5)cc2Cl)CC1 | < 50 | –
O=C(Nc1ccc(F)cc1)C1(C(=O)Nc2ccc(Oc3ccnc4cc(OCCCO)c5c(c34)OCCO5)c(F)c2)CC1 | < 50 | < 50
CC(C)(O)COc1cc2nccc(Oc3ccc(NC(=O)C4(C(=O)Nc5ccc(F)cc5)CC4)cc3F)c2c2c1OCCO2 | < 50 | < 50
COc1cc2nccc(Oc3cc(Cl)c(NC(=O)C4(C(=O)Nc5ccc(F)cc5)CC4)cc3F)c2c2c1OCCO2 | < 50 | > 5000
CC1(N)CCN(CCCOc2cc3nccc(Oc4ccc(NC(=O)C5(C(=O)Nc6ccc(F)cc6)CC5)cc4F)c3c3c2OCCO3)CC1 | < 50 | < 50
CC(C)Oc1cc2nccc(Oc3ccc(NC(=O)C4(C(=O)Nc5ccc(F)cc5)CC4)cc3F)c2c2c1OCCO2 | < 50 | –
CCOc1cc2nccc(Oc3ccc(NC(=O)C4(C(=O)Nc5ccc(F)cc5)CC4)cc3F)c2c2c1OCCO2 | < 50 | < 50
O=C(Nc1ccc(F)cc1)C1(C(=O)Nc2ccc(Oc3ccnc4cc(OCCCN5CCOCC5)c5c(c34)OCCO5)c(Cl)c2)CC1 | < 50 | –

SMILES | IC50 [1] [nM] | IC50 [2] [nM]
CC1(C)CCN(CCCOc2cc3nccc(Oc4ccc(NC(=O)C5(C(=O)Nc6ccc(F)cc6)CC5)cc4F)c3c3c2OCCO3)CC1 | < 50 | < 50
CN1CCN(CCCOc2cc3nccc(Oc4ccc(NC(=O)C5(C(=O)Nc6ccc(F)cc6)CC5)cc4F)c3c3c2OCCO3)CC1 | < 50 | < 50
COc1cc2nccc(Oc3ccc(NC(=O)C4(C(=O)Nc5ccc(F)cc5)CC4)cc3F)c2c2c1OCCO2 | < 50 | < 50
N#CCOc1cc2nccc(Oc3ccc(NC(=O)C4(C(=O)Nc5ccc(F)cc5)CC4)cc3F)c2c2c1OCCO2 | < 50 | –
O=C(Nc1ccc(F)cc1)C1(C(=O)Nc2ccc(Oc3ccnc4cc(OCCCN5CCOCC5)c5c(c34)OCCO5)cc2)CC1 | < 50 | < 50
CN(CCCOc1cc2nccc(Oc3ccc(NC(=O)C4(C(=O)Nc5ccc(F)cc5)CC4)cc3F)c2c2c1OCCO2)C1CCC1 | < 50 | < 50
O=C(Nc1ccc(F)cc1)C1(C(=O)Nc2ccc(Oc3ccnc4cc(OCCO)c5c(c34)OCCO5)c(F)c2)CC1 | < 50 | < 50
O=C(Nc1ccc(F)cc1)C1(C(=O)Nc2ccc(Oc3ccnc4cc(OCCCN5CCOCC5)c5c(c34)OCCO5)c(F)c2)CC1 | < 50 | < 50
COCCOc1cc2nccc(Oc3ccc(NC(=O)C4(C(=O)Nc5ccc(F)cc5)CC4)cc3F)c2c2c1OCCO2 | < 50 | < 50
O=C(Nc1ccc(F)cc1)C1(C(=O)Nc2ccc(Oc3ccnc4cc(OC5CCOC5)c5c(c34)OCCO5)c(F)c2)CC1 (stereo unspecified) | < 50 | < 50
O=C(Nc1ccc(F)cc1)C1(C(=O)Nc2ccc(Oc3ccnc4cc(OCCCN5CCS(=O)(=O)CC5)c5c(c34)OCCO5)c(F)c2)CC1 | < 50 | < 50
NC1(COc2cc3nccc(Oc4ccc(NC(=O)C5(C(=O)Nc6ccc(F)cc6)CC5)cc4F)c3c3c2OCCO3)CC1 | < 50 | < 50
CN(C)CCCCCCOc1cc2nccc(Oc3ccc(NC(=O)C4(C(=O)Nc5ccc(F)cc5)CC4)cc3F)c2c2c1OCCO2 | < 50 | < 50
O=C(Nc1ccc(F)cc1)C1(C(=O)Nc2ccc(Oc3ccnc4cc(OCCCN5CCCCC5)c5c(c34)OCCO5)c(F)c2)CC1 | < 50 | < 50
N#CCCCOc1cc2nccc(Oc3ccc(NC(=O)C4(C(=O)Nc5ccc(F)cc5)CC4)cc3F)c2c2c1OCCO2 | < 50 | < 50
COc1cc2nccc(Oc3ccc(NC(=O)C4(C(=O)Nc5ccc(F)cc5)CC4)c(F)c3)c2c2c1OCCO2 | < 50 | < 50
